The source of these data is publication PMC10057847, “Precision engineering of biological function with large-scale measurements and machine learning” (PLOS ONE, 2023).

Common to all, as to experiment: In vivo IPTG dose-response of LacI-regulated eYFP expression from the pVER plasmid in E. coli grown in rich M9 medium at 37 °C, measured by flow cytometry and fitted to the Hill equation by Bayesian MCMC (posterior mean and SD).
What all share (type): cell-based, E. coli MG1655Δlac
Conditions in all cases: read-out: log_ec50 (base-10 logarithm of EC50 in μmol/L) (converted)
A general note: In flow cytometry, cells or beads pass a laser one at a time.

One assay has as its target T1, pVER-IPTG-001 (Escherichia coli, UniProt P03023, D130E/D267N/N333I/Q55H/T258I/V192A/Y273H).
T1 construct: gene lacI; LacI expressed from pVER plasmid
As for the experimental part:
(§1) All reported measurements were completed using E. coli strain MG1655Δlac, in which the lactose operon of E. coli strain MG1655 (ATCC #47076) was replaced with the bleomycin resistance gene from Streptoalloteichus hindustanus (Shble).
(§2) Dose-response curves were measured with flow cytometry using E. coli MG1655Δlac transformed with variants of the pVER plasmid, described previously. The plasmid contained different variants of the lacI coding DNA sequence (CDS), as described in the text, and an expression cassette with enhanced yellow fluorescent protein (eYFP) under the control of the lactose operator (lacO). The lacI CDS was verified with Sanger sequencing for each variant.
(§3) All cultures were grown in a rich M9 media (3 g/L KH2PO4, 6.78 g/L Na2HPO4, 0.5 g/L NaCl, 1 g/L NH4Cl, 0.1 mmol/L CaCl2, 2 mmol/L MgSO4, 4% glycerol, and 20 g/L casamino acids) supplemented with 50 μg/mL kanamycin.
(§4) • Prepare first growth plate, with 450 μL rich M9 media in each well. • Pipette 50 μL of starter culture into each well in rows B-G of the plate (leaving rows A and H blank). • Use a E. coli containing a different lacI variant for each row. • Seal first growth plate with gas permeable membrane. • Incubate plate in plate reader for 12 h to 14 h. • Grow to stationary to provide a reproducible starting point for each measurement. • Prepare second growth plate with 490 μL in each well. • Dilution series of isopropyl-β-D-thiogalactopyranoside (IPTG): 11 columns of a 2-fold serial dilution gradient and one column with zero IPTG. • Ten minutes before the end of the incubation cycle for the first growth plate, move the second growth plate to a heated station set to 47°C. • Ten minutes at 47°C will pre-warm the media in the plate to 37°C. • De-seal the first growth plate (after completion of the stationary-phase incubation cycle). • Pipette 10 μL from each well in the first growth plate to the corresponding well in the second growth plate. • 50-fold dilution; using a 96-channel pipetting head. • Seal second growth plate with gas permeable membrane. • Incubate second growth plate in plate reader for 160 minutes. • Sufficient for approximately 10-fold increase in cell density or 3.3 doublings. • Prepare third growth plate with 450 μL in each well. • Same dilution series as in second growth plate. • Ten minutes before the end of the incubation cycle for the second growth plate, move the third growth plate to a heated station set to 47°C. • De-seal the second growth plate (after completion of the 160 minute incubation cycle). • Pipette 50 μL from each well in the second growth plate to the corresponding well in the third growth plate. • 10-fold dilution; using a 96-channel pipetting head. • Seal third growth plate with gas permeable membrane. • Incubate third growth plate in plate reader for 160 minutes. • Prepare flow cytometry sample plate (round-bottom 96-well plate, Falcon, 351177). • Each well in rows B-G: 195 μL 1x PBS with 170 μg/mL chloramphenicol (Fisher BioReagents, cat. #BP904-100). • Rows A and H: PBS blanks, focusing fluid blanks, and space for calibration bead sample • At the end of the incubation cycle for the third growth plate, pipette 5 μL from each well to the corresponding well in the flow cytometry sample plate.
(§5) Flow cytometry samples were measured with an Attune NxT flow cytometer equipped with a 96-well plate autosampler using a 488 nm excitation laser and a 530 nm ± 15 nm bandpass emission filter. Blank samples were measured with each batch of cell measurements, and an automated gating algorithm was used to discriminate cell events from non-cell events. Fluorescence calibration beads (Spherotech, part no. RCP-30-20A) were also measured with each batch of samples to facilitate calibration of flow cytometry data to molecules of equivalent fluorescein (MEF). […]

For a further assay, the target named is T2, pVER-IPTG-002 (Escherichia coli, UniProt P03023, M254I/S158R/T154I/V238D/V264I/V96E).
T2 construct: gene lacI; LacI expressed from pVER plasmid
T2 sequence (P03023 whole entry V96E/T154I/S158R/V238D/M254I/V264I): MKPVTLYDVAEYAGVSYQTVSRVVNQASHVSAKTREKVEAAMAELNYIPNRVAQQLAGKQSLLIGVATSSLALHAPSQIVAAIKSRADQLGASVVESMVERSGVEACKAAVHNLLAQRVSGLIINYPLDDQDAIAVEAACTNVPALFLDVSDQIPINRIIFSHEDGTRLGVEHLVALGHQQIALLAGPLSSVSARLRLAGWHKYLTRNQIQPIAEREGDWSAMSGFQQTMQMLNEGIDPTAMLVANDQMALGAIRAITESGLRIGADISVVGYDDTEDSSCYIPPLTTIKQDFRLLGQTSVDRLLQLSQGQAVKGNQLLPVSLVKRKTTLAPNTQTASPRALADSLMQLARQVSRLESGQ
As for the experimental part: as §1, §2, §3, §4, §5

A further assay has as its target T3, pVER-IPTG-002(V136E) (Escherichia coli, UniProt P03023, M254I/S158R/T154I/V136E/V238D/V264I/V96E).
T3 construct: gene lacI; LacI expressed from pVER plasmid
As for the experimental part: as §1, §2, §3, §4, §5

In the next assay the target is T4, pVER-IPTG-002(V80L) (Escherichia coli, UniProt P03023, M254I/S158R/T154I/V238D/V264I/V80L/V96E).
T4 construct: gene lacI; LacI expressed from pVER plasmid
T4 sequence (P03023 whole entry V80L/V96E/T154I/S158R/V238D/M254I/V264I): as the sequence (P03023 whole entry V96E/T154I/S158R/V238D/M254I/V264I) above, with V80L counted along it
As for the experimental part: as §1, §2, §3, §4, §5

In a further assay the target is T5, pVER-IPTG-003 (Escherichia coli, UniProt P03023, A337V/G200V/H74Y/K290R/L262M/Q306H/R207H/V119I/V52M).
T5 construct: gene lacI; LacI expressed from pVER plasmid; stop codon at 352
T5 sequence (P03023 1-351 V52M/H74Y/V119I/G200V/R207H/L262M/K290R/Q306H/A337V): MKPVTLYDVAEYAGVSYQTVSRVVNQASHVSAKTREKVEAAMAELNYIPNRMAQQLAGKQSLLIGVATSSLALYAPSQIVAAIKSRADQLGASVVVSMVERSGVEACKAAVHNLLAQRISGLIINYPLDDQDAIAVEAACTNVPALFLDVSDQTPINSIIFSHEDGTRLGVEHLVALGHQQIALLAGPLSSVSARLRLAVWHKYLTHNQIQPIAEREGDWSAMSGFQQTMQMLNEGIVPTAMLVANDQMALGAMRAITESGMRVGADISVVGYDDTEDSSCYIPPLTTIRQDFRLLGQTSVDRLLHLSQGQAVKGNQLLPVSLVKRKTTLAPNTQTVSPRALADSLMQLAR
As for the experimental part:
as §1, §2, §3, §4, §5

The target in a further assay is T6, pVER-IPTG-004(V80L) (Escherichia coli, UniProt P03023, A87P/E357G/V301M/V80L).
T6 construct: gene lacI; LacI expressed from pVER plasmid
T6 sequence (P03023 whole entry V80L/A87P/V301M/E357G): as the sequence (P03023 whole entry V96E/T154I/S158R/V238D/M254I/V264I) above, with V80L, A87P, E96V, I154T, R158S, D238V, I254M, I264V, V301M, E357G counted along it
The protocol:
as §1, §2, §3, §4, §5

Another assay addresses T7, pVER-IPTG-005 (Escherichia coli, UniProt P03023, A176S/E172D/F226Y/G91D/R101G/S158C/T167M/T276S/T299A/V94A).
T7 construct: gene lacI; LacI expressed from pVER plasmid
As for the experimental part:
as §1, §2, §3, §4, §5

The target of another assay is T8, pVER-IPTG-006 (Escherichia coli, UniProt P03023, A241V/A341T/D88Y/L305M/L319F/L346S/N246S/P339T).
T8 construct: gene lacI; LacI expressed from pVER plasmid
T8 sequence (P03023 whole entry D88Y/A241V/N246S/L305M/L319F/P339T/A341T/L346S): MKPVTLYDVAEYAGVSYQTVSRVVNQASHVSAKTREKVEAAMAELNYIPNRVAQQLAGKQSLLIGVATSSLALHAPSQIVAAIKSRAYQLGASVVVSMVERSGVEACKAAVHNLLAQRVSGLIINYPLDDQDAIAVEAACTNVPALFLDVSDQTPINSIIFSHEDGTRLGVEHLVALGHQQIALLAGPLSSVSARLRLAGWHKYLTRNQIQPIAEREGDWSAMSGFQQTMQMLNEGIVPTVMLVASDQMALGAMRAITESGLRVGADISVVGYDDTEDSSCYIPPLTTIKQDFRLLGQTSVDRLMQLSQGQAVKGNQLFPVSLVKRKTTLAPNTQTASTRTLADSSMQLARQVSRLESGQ
The protocol: as §1, §2, §3, §4, §5

Another assay addresses T9, pVER-IPTG-007 (Escherichia coli, UniProt P03023, A199V/D88Y/K84E/L342M/L90P/Q153L/R351P/S358R).
T9 construct: gene lacI; LacI expressed from pVER plasmid
As for the experimental part:
as §1, §2, §3, §4, §5

The next assay addresses T10, pVER-IPTG-010 (Escherichia coli, UniProt P03023, A72V/I210F/K84N/M254T/T336S).
T10 construct: gene lacI; LacI expressed from pVER plasmid
As for the experimental part:
as §1, §2, §3, §4, §5

A further assay addresses T11, pVER-IPTG-077 (Escherichia coli, UniProt P03023, A222T/D152E/I64V/K327N/L295M/N208I/Q131R/T141A/V95M).
T11 construct: gene lacI; LacI expressed from pVER plasmid
The protocol:
as §1, §2, §3, §4, §5

T7 sequence (P03023 whole entry G91D/V94A/R101G/S158C/T167M/E172D/A176S/F226Y/T276S/T299A): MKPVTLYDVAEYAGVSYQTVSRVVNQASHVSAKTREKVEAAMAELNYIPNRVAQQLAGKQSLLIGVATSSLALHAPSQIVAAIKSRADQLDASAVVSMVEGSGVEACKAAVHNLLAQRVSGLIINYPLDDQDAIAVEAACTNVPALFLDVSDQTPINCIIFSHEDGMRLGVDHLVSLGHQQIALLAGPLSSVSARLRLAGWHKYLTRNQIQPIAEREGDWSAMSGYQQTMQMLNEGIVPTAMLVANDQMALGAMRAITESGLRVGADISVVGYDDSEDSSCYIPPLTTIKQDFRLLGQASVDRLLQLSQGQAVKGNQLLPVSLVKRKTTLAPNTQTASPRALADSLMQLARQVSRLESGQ
T3 sequence (P03023 whole entry V96E/V136E/T154I/S158R/V238D/M254I/V264I): as the sequence (P03023 whole entry V96E/T154I/S158R/V238D/M254I/V264I) above, with V136E counted along it
T11 sequence (P03023 whole entry I64V/V95M/Q131R/T141A/D152E/N208I/A222T/L295M/K327N): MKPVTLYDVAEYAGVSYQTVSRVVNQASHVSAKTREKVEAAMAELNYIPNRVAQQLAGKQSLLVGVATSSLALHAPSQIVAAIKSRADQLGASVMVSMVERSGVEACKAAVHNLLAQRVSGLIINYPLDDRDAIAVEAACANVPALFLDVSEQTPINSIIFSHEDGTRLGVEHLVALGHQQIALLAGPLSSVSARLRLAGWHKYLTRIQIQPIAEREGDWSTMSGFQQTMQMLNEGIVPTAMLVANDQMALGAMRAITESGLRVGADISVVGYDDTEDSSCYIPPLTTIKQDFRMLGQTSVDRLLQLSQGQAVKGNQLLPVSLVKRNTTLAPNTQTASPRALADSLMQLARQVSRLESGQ
T1 sequence (P03023 whole entry Q55H/D130E/V192A/T258I/D267N/Y273H/N333I): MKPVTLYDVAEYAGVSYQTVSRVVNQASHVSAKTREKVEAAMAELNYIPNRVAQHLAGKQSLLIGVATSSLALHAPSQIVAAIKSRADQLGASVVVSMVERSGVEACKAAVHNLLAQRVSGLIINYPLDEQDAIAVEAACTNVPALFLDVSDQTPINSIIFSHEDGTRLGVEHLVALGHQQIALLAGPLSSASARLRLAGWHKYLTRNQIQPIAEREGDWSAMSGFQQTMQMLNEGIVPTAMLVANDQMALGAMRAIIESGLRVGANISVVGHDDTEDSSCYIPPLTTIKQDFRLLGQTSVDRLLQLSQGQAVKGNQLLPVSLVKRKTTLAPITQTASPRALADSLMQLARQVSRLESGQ
T9 sequence (P03023 whole entry K84E/D88Y/L90P/Q153L/A199V/L342M/R351P/S358R): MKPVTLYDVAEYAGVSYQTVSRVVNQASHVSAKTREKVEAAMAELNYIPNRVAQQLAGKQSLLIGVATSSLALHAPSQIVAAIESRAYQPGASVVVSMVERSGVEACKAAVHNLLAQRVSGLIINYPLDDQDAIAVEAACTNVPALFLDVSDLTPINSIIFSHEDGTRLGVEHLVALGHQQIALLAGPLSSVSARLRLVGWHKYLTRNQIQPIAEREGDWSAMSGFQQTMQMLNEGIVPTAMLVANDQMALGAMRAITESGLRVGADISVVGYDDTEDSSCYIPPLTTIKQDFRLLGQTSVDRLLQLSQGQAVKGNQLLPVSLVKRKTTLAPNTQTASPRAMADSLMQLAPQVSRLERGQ
T10 sequence (P03023 whole entry A72V/K84N/I210F/M254T/T336S): as the sequence (P03023 whole entry V96E/T154I/S158R/V238D/M254I/V264I) above, with A72V, K84N, E96V, I154T, R158S, I210F, D238V, I254T, I264V, T336S counted along it

Consider `CC(C)S[C@@H]1O[C@H](CO)[C@H](O)[C@H](O)[C@H]1O` [IPTG, isopropyl-β-D-thiogalactopyranoside], for which the EC50 was 774 µmol/L at pVER-IPTG-001; 233 µmol/L on pVER-IPTG-002; 464000 µmol/L on pVER-IPTG-002(V136E); 47.7 µmol/L at pVER-IPTG-002(V80L); 162 µmol/L at pVER-IPTG-003; 36.8 µmol/L on pVER-IPTG-004(V80L). Besides, the EC50 at pVER-IPTG-005 was 203 µmol/L; on pVER-IPTG-006, 540 µmol/L; at pVER-IPTG-007, 29.4 µmol/L; at pVER-IPTG-010 it was 9.17 µmol/L; on pVER-IPTG-077, 2.95 µmol/L.
